Target: T1, human oxytocin receptor (Homo sapiens, UniProt P30559)
T1 construct: host or cells: CHO cells (pcDNA3.1 vector)
T1 sequence (P30559 1-389): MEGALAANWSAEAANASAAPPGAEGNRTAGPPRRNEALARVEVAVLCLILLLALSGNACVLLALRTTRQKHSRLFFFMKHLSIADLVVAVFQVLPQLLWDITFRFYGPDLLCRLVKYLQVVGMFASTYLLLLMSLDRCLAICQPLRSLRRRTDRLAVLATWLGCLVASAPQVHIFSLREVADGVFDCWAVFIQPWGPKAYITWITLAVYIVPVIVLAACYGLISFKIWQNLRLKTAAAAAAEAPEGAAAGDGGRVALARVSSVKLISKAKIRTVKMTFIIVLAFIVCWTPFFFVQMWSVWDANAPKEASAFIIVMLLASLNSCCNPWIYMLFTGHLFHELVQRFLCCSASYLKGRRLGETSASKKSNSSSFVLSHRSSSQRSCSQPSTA
Test: Oxytocin binding in Chinese Hamster Ovary cell membranes expressing human oxytocin receptors
Details: 100 nM, CHO cell membranes, [3H]oxytocin, values without parentheses
Protocol: Oxytocin Binding in Chinese Hamster Ovary Cell Membranes Expressing Human Oxytocin Receptors
The trypsin is removed by aspiration and the cells dislodged by tapping. Cell Culture medium (e.g. 30 mL for 1:30 split) is immediately added and mixed well to inactivate trypsin. 1 mL of detached cells is added to new culture flasks containing fresh Cell Culture medium (e.g. into 25 mL per T-150 flask), and mixed gently. The cells are incubated at 37° C. in 5% CO2. The medium is changed at 3 to 4 days interval (or as appropriate). […] All steps are done under sterile conditions. B. Membrane Preparation: The cells are washed twice gently with Hank's Balanced Salt solution (e.g., use 10 mL per T-150 flask). […] The contents are transferred to centrifuge tubes (50 mL size) kept in ice bath. All subsequent steps are done at 4° C. The tubes are centrifuged at 300×g for 15 min (1380 rpm on SORVAL, Model RT6000D, using rotor for 50 mL tubes). The supernatant is discarded and the cells suspended in homogenizing buffer (10 mM Tris-HCl containing 0.25 M sucrose and 1 mM EDTA, pH 7.4) ensuring that the volume of the buffer is about ten times the volume of the cell pellet. The cells are pooled into a centrifuge tube (50 mL) and homogenized with a Polytron at setting 6 for 10 sec. The homogenate is transferred into a Potter-Elvjehm homogenizer and homogenized with 3 strokes. The homogenate is centrifuged at 1500×g for 10 min at 4° C. (3100 rpm using SORVAL, model RT6000D, using rotor for 50 mL tubes). The pellet is discarded. The supernatant is centrifuged at 100,000×g for 60 min. at 4° C. (Beckman L8-80M ultracentrifuge; spin at 37,500 rpm with rotor type 70 Ti for 50 mL tubes; 38,000 rpm with type 80Ti for 15 mL tubes; or 35,800 rpm with rotor type 45Ti). The supernantant is discarded and the pellet suspended in 3 to 4 mL of Tris buffer (50 mM TRIS-HCl, pH 7.4). The protein content is estimated by the Bradford or Lowry method. The volume of the membrane suspension is adjusted with the membrane buffer (50 mM Tris-HCl containing 0.1% BSA and 0.1 mM PMSF) to give 3.0 mg/mL (or as appropriate) of protein. The membranes are aliquoted and stored at −70° C. C. Radioligand Binding Assay: In wells of a 96-well format microtiter plate, is added 90, 110 or 130 μL (to make up a final volume of 200 μL) of assay buffer containing 50 mM of Tris-HCl (pH 7.4), […], 1 mg % aprotinin, 1 mg % leupeptin, 2 mg % 1,10-phenanthroline, 10 mg % trypsin inhibitor, and 0.1 mM PMSF. The inhibitors are added on the day of the experiment. The components are mixed at room temperature, and then kept in ice bath following adjustment of the pH to 7.4. […] For oxytocin and other peptide ligands, 20 μL of 50% DMSO is added and the assay buffer volume is adjusted accordingly. To each well is added 50 μL of frozen membrane suspension thawed immediately prior to use and diluted in assay buffer to the required concentration (equivalent to 25 to 50 μg of protein/well as needed). 20 μL of 8 nM [^3H]oxytocin in the assay buffer, prepared just before use is added and incubated at room temperature for 60 min. shaking the plate on a mechanical shaker for the first 15 min. The incubation is stopped by rapid filtration of the plate contents followed by washing with ice-cold buffer (50 mM Tris-HCl, pH 7.4) using a cell harvester (Tomtek and Printed filtermat-B filter paper). The filter paper is thoroughly dried (7–12 min. in a microwave oven) and impregnated with MeltiLex B/H melt-on scintillation wax sheets and the radioactivity counted in a betaplate scintillation counter.
Binding data is either reported as percent inhibition at a certain concentration or if an IC50 was calculated, as a nanomolar concentration.

Row | SMILES | OT % inhibition @ 100% nM [%]
1 | O=C(c1ccc2n1Cc1ccccc1N(C(=O)c1ccc(-c3cccc4ccccc34)cc1Cl)C2)N1CCC(N2CCCCC2)CC1 [Example 121] | 0

Same assay, conditions: 100 nM, CHO cell membranes, [3H]oxytocin, values without parentheses, read-out: OT % inhibition @ 100% nM

Row | SMILES | inhibition at 0.1 µM [%]
2 | COc1ccccc1-c1ccc(C(=O)N2Cc3ccc(C(=O)N4CCC(N5CCCCC5)CC4)n3Cc3ccccc32)cc1OC [Example 119, {10-[(2,2′-Dimethoxy-[1,1′-biphenyl]-4-yl)carbonyl]-10,11-dihydro-5H-pyrrolo[2,1-c][1,4]benzodiazepin-3-yl}[4-(1-piperidinyl)-1-piperidinyl]methanone] | 58
3 | COc1cccc(-c2ccc(C(=O)N3Cc4ccc(C(=O)N5CCC(N6CCCCC6)CC5)n4Cc4ccccc43)cc2OC)c1 [Example 120, {10-[(2,3′-Dimethoxy-[1,1′-biphenyl]-4-yl)carbonyl]-10,11-dihydro-5H-pyrrolo[2,1-c][1,4]benzodiazepin-3-yl}[4-(1-piperidinyl)-1-piperidinyl]methanone] | 69
4 | Cc1cc(C(=O)N2Cc3ccc(C(=O)N4CCC(N5CCCCC5)CC4)n3Cc3ccccc32)ccc1-c1ccccc1C(F)(F)F [Example 122, {10-[(2-Methyl-2′-(trifluoromethyl) -[1,1′-biphenyl]-4-yl)carbonyl]-10,11-dihydro-5H -pyrrolo[2,1-c][1,4]benzodiazepin-3-yl}[4-(1-piperidinyl)-1-piperidinyl]methanone] | 77
5 | COc1ccccc1-c1ccc(C(=O)N2Cc3ccc(C(=O)NCCCn4ccnc4)n3Cc3ccccc32)cc1C [Example 123, N-[3-(1H-Imidazol-1-yl)propyl]-10-[(2′-methoxy-2-methyl[1,1′-biphenyl]-4-yl)carbonyl]-10,11-dihydro-5H-pyrrolo[2,1-c][1,4]benzodiazepine-3-carboxamide] | 47
6 | Cc1ccccc1-c1ccc(C(=O)N2Cc3ccc(C(=O)NCCCn4ccnc4)n3Cc3ccccc32)cc1C [Example 124, 10-[(2,2′-Dimethyl[1,1′-biphenyl]-4-yl)carbonyl]-N-[3-(1H-imidazol-1-yl)propyl]-10,11-dihydro-5H-pyrrolo[2,1-c][1,4]benzodiazepine-3-carboxamide] | 60
7 | COc1cccc(-c2ccc(C(=O)N3Cc4ccc(C(=O)NCCCn5ccnc5)n4Cc4ccccc43)cc2C)c1 [Example 125, N-[3-(1H-Imidazol-1-yl)propyl]-10-[(3′-methoxy-2-methyl[1,1′-biphenyl]-4-yl)carbonyl]-10,11-dihydro-5H-pyrrolo[2,1-c][1,4]benzodiazepine-3-carboxamide] | 36
8 | COc1ccccc1-c1ccc(C(=O)N2Cc3ccc(C(=O)NCCCn4ccnc4)n3Cc3ccccc32)cc1 [Example 126, N-[3-(1H-Imidazol-1-yl)propyl]-10-[(2′-methoxy[1,1′-biphenyl]-4-yl)carbonyl]-10,11-dihydro-5H-pyrrolo[2,1-c][1,4]benzodiazepine-3-carboxamide] | 43
9 | Cc1ccccc1-c1ccc(C(=O)N2Cc3ccc(C(=O)NCCCn4ccnc4)n3Cc3ccccc32)cc1 [Example 127, N-[3-(1H-Imidazol-1-yl)propyl]-10-[(2′-methyl[1,1′-biphenyl]-4-yl)carbonyl]-10,11-dihydro-5H-pyrrolo[2,1-c][1,4]benzodiazepine-3-carboxamide] | 29
10 | COc1cc(C(=O)N2Cc3ccc(C(=O)NCCCn4ccnc4)n3Cc3ccccc32)ccc1-c1ccccc1C [Example 128, N-[3-(1H-Imidazol-1-yl)propyl]-10-[(2-methoxy-2′-methyl[1,1′-biphenyl]-4-yl)carbonyl]-10,11-dihydro-5H-pyrrolo[2,1-c][1,4]benzodiazepine-3-carboxamide] | 43
11 | COc1cc(-c2ccccc2C)c(Cl)cc1C(=O)N1Cc2ccc(C(=O)NCCCn3ccnc3)n2Cc2ccccc21 [Example 129, 10-[(6-Chloro-3-methoxy-2′-methyl[1,1′-biphenyl]-4-yl)carbonyl]-N-[3-(1H-imidazol-1-yl)propyl]-10,11-dihydro-5H-pyrrolo[2,1-c][1,4]benzodiazepine-3-carboxamide] | 52
12 | COc1cccc(-c2cc(OC)c(C(=O)N3Cc4ccc(C(=O)NCCCn5ccnc5)n4Cc4ccccc43)cc2Cl)c1 [Example 130, 10-[(6-Chloro-3,3′-dimethoxy[1,1′-biphenyl]-4-yl)carbonyl]-N-[3-(1H-imidazol-1-yl)propyl]-10,11-dihydro-5H-pyrrolo[2,1-c][1,4]benzodiazepine-3-carboxamide] | 46
13 | COc1cc(C(=O)N2Cc3ccc(C(=O)NCCCn4ccnc4)n3Cc3ccccc32)ccc1-c1cccc2ccccc12 [Example 131, N-[3-(1H-Imidazol-1-yl)propyl]-10-[3-methoxy-4-(1-naphthyl)benzoyl]-10,11-dihydro-5H-pyrrolo[2,1-c][1,4]benzodiazepine-3-carboxamide] | 26
14 | COc1ccccc1-c1ccc(C(=O)N2Cc3ccc(C(=O)NCCCn4ccnc4)n3Cc3ccccc32)cc1OC [Example 132, 10-[(2,2′-Dimethoxy[1,1′-biphenyl]-4-yl)carbonyl]-N-[3-(1H-imidazol-1-yl)propyl]-10,11-dihydro-5H-pyrrolo[2,1-c][1,4]benzodiazepine-3-carboxamide] | 31
15 | COc1cccc(-c2ccc(C(=O)N3Cc4ccc(C(=O)NCCCn5ccnc5)n4Cc4ccccc43)cc2OC)c1 [Example 133, 10-[(2,3′-Dimethoxy[1,1′-biphenyl]4-yl)carbonyl]-N-[3-(1H-imidazol-1-yl)propyl]-10,11-dihydro-5H-pyrrolo[2,1-c][1,4]benzodiazepine-3-carboxamide] | 46
16 | O=C(NCCCn1ccnc1)c1ccc2n1Cc1ccccc1N(C(=O)c1ccc(-c3cccc4ccccc34)cc1Cl)C2 [Example 134, 10-[2-Chloro-4-(1-naphthyl)benzoyl]-N-[3-(1H-imidazol-1-yl)propyl]-10,11-dihydro-5H-pyrrolo[2,1-c][1,4]benzodiazepine-3-carboxamide] | 15
17 | Cc1cc(C(=O)N2Cc3ccc(C(=O)NCCCn4ccnc4)n3Cc3ccccc32)ccc1-c1ccccc1C(F)(F)F [Example 135, N-[3-(1H-Imidazol-1-yl)propyl]-10-{[2-methyl-2′-(trifluoromethyl)[1,1′-biphenyl]-4-yl]carbonyl}-10,11-dihydro-5H-pyrrolo[2,1-c][1,4]benzodiazepine-3-carboxamide] | 24
18 | COc1ccccc1-c1ccc(C(=O)N2Cc3ccc(C(=O)N4CCC(N5CCCC5)CC4)n3Cc3ccccc32)cc1C [Example 137, {10-[(2′-Methoxy-2-methyl[1,1′-biphenyl]-4-yl)carbonyl]-10,11-dihydro-5H-pyrrolo[2,1-c][1,4]benzodiazepin-3-yl}[4-(1-pyrrolidinyl)-1-piperidinyl]methanone] | 88

Reference: US7109193B2, “Tricyclic diazepines tocolytic oxytocin receptor antagonists” (Wyeth, priority 2001, dated 2006)
